Results taken from US9475773B2, “NK3 receptor antagonist compound (NK3RA) for use in a method for the treatment of polycystic ovary syndrome (PCOS)” (ASTRAZENECA AB, priority 2013, dated 2016).

Key:
NK1 = NK1 (Homo sapiens, UniProt P25103); assay: Specificity over other tachykinin receptors (NK1); format: binding
female rats = assay: Rat female fertility and embryofetal development study; format: in vivo
Method: In female rats the No Adverse Effect Dose Level for fetal minor abnormalities and variants was 1000 mg/kg/day.

NK2 = target: T1, NK2 (Homo sapiens, UniProt P21452); assay: Specificity over other tachykinin receptors (NK2); format: binding
T1 sequence (P21452 1-398): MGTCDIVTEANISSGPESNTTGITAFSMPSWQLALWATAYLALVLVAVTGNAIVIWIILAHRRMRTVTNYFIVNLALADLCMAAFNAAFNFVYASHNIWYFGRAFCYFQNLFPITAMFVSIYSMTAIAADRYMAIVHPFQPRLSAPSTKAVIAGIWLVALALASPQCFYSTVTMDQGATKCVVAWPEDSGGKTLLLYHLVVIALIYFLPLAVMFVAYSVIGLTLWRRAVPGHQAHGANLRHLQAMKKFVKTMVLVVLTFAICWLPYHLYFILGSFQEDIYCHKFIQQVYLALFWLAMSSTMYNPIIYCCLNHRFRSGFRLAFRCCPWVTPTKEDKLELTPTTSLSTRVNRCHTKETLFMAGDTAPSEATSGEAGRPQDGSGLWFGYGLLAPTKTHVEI

[1] = test system: LH, free and total testosterone; assay: Phase 2a randomised double blind placebo controlled study in women with PCOS (interim data); format: in vivo, human
Method: The pharmacodynamics, safety and pharmacokinetics of a compound of the present invention, NK3RA, is being further evaluated in a randomized, double-blind, placebo-controlled of NK3RA when given in multiple doses to females with PCOS.
In this type of clinical trial three doses of 20 mg once daily, 20 mg twice daily and 40 mg twice daily of test compound are being compared to placebo, and studied in parallel group design. […] Exploratory analyses will focus on changes from baseline of LH, DHEA, FSH, oestrogen, progesterone, prolactin, thyroid stimulating hormone, Insulin-like Growth Factor 1 [IGF-1] (as surrogate for GH) and HbA1c on days 7 and 28, as well as the impact of treatment on patient reported outcomes and HRQoL as measured by change from baseline at day 28.
The study population includes women with PCOS aged 18-45. The study will enroll 14 PCOS subjects per dose cohort with a total of N=56 for the entire study (2 drop outs per group assumed to give 12 evaluable subjects per dose). Patients are being dosed in the study over a duration of 28 days.
The effect of NK3RA on testosterone and LH is being assessed. […] LH pulse amplitude and frequency are mathematically modelled parameters from raw LH assay data.
Hourly measurement of FSH and free and total testosterone was performed during these periods of intensive monitoring.
Interim data have been obtained from a total of 20 women with Polycystic Ovary Syndrome (PCOS) who received treatment (NK3RA or placebo) in the ongoing phase 2a study. This study is a 28 day, randomised, double blind placebo controlled study with 4 treatment arms, NK3RA 20 mg once daily, 20 mg twice daily, 40 mg twice daily and placebo in women with PCOS.
Tables 1 to 3 below summarise the number of patients with data supportive, consistent and not supportive by treatment group (placebo and NK3RA).
In Table 1 the criteria used to determine what is supportive, consistent or not supportive are based on a qualitative evaluation of the changes in:
(a) LH area under the curve (AUC) between 0 and 8 hours AUC(0-8)
(b) LH pulsatility parameters derived through deconvolution (Veldhuis J D, Keenan D M, and Pincus S M. Motivations and methods for analyzing pulsatile hormone secretion. Endocrine Reviews. 2008, 29(7):823-864; and Liu P Y, Keenan D M, Kok P, Padmanabhan V, O'Byrne K T, and Veldhuis J D. Sensitivity and specificity of pulse detection using a new deconvolution method. Am J Physiol Endocrinol Metab. 2009; 297(2):538-44) • i) average mass per LH pulse in 8 hours • ii) total number of LH pulses in 8 hours.
For LH, there is a relationship between the LH AUC(0-8) and LH pulsatility. In particular, reductions in LH AUC(0-8) that would be considered to be disease modifying in PCOS will manifest themselves in pulsatility parameters of average mass per LH pulse in 8 hours and/or total number of LH pulses in 8 hours. Mass per pulse (MPP) is defined the amount of LH released per reconstructed LH pulse. The LH AUC(0-8) can be more reliably measured compared to the pulsatility parameters and therefore why both AUC(0-8) and pulsatility are considered in interpreting the level of LH reduction.
In Table 2 the criteria used to determine what is supportive, consistent or not supportive are based on a qualitative evaluation of the changes in average (on an individual patient basis) free testosterone.
In Table 3 the criteria used to determine what is supportive, consistent or not supportive are based on a qualitative evaluation of the changes in average (on an individual patient basis) total testosterone.
Expert judgement was necessary in the application of these criteria and therefore plots were evaluated independently by 3 AZ physicians. The most common result across the 3 physicians determined provided the overall evaluation for a single patient. These criteria were agreed between the 3 reviewers ahead of the plots being available for review. […]

female rabbits = assay: Rabbit maternal toxicity and fetal observations; format: in vivo
Method: In female rabbits, the no effect dose level for maternal toxicity was 25 mg/kg/day. The no adverse effect dose level for fetal observations was 50 mg/kg/day.

[2] = decrease vs baseline on both days 7 and 28
[3] = decrease vs baseline on either days 7 and 28
[4] = increase vs baseline on both days 7 and 28

NK1, sequence (P25103 whole entry): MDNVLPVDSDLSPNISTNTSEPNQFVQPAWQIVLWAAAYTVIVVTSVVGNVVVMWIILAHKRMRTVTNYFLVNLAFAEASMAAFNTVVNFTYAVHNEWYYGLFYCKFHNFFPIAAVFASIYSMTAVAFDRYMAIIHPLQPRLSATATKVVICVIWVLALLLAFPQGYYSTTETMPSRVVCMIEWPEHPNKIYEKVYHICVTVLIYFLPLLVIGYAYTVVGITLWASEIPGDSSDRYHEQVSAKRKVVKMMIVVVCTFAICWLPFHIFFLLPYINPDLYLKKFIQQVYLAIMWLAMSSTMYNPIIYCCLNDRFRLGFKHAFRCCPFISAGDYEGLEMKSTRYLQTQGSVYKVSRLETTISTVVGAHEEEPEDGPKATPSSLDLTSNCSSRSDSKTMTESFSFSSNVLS

CC[C@H](NC(=O)c1c(NS(C)(=O)=O)c(-c2ccccc2)nc2ccccc12)c1ccccc1 [NK3RA, 3-(methanesulfonamido)-2-phenyl-N-[(1S)-1-phenylpropyl]quinoline-4-carboxamide]
specificity for NK3 over NK1 (NK1): greater than 1200 fold | No Adverse Effect Dose Level for fetal minor abnormalities and variants (female rats; female rats): 1000 mg/kg/day | estrus cycles, mating performance and fertility (female rats; rat, in vivo): Disturbed estrus cycles were seen with no adverse effects on mating performance or fertility | specificity for NK3 over NK2 (NK2): > 800 fold | LH: No. of patients Supportive ([1]; NK3RA arms pooled, LH AUC decreases on both days 7 and 28 AND MPP or number of pulses decrease): 2 | LH: No. of patients Consistent ([1]; NK3RA arms pooled, LH AUC decreases on both days 7 and 28 OR MPP or number of pulses decrease): 3 | LH: No. of patients Non-supportive ([1]; NK3RA arms pooled, LH AUC, MPP and number of pulses increase on day 7 or 28): 3 | Free testosterone: No. of patients Supportive [1, 2]: 2 | Total Testosterone: No. of patients Supportive [1, 2]: 3 | Free testosterone: No. of patients Consistent [1, 3]: 4 | Total Testosterone: No. of patients Consistent [1, 3]: 3 | Free testosterone: No. of patients Non-supportive [1, 4]: 3 | Total Testosterone: No. of patients Non-supportive [1, 4]: 4 | no adverse effect dose level for fetal observations (female rabbits): 50 mg/kg/day | no effect dose level for maternal toxicity (female rabbits): 25 mg/kg/day
